Assay results as given in publication PMC4788259 (PLoS Neglected Tropical Diseases, 2016).

system: E. multilocularis metacestodes; test: PGI assay: phosphoglucose isomerase release from damaged metacestodes; type: cell-based, Echinococcus multilocularis; settings: 10 μM, 5 days, single wells, relative to DB1127 (10 μM)
Outline: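 E. multilocularis metacestode vesicles (strain H95, grown in BALB/c mice, 2–4 mm diameter) were exposed in vitro to compounds for 5 days. Damage was read as phosphoglucose isomerase released into the medium. Initial screening used 10 μM in single wells, with 0.1% DMSO as negative control. EC50 values were derived from this read-out.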

Row | SMILES | PGI (% of DB1127 at 10 uM) [%]
1 | CCC(c1ccccc1)c1nn2c(-c3cccs3)nnc2s1 (stereo not drawn) [MMV665876] | -39.84
2 | COc1cccc(NC(=O)[C@H](C(C)C)n2c(=O)[nH]c3ccccc3c2=O)c1 [MMV665878] | -74.00
3 | CC(C)(C)C(=O)Nc1ccc(C(=O)Nc2cccc(-c3nc4ccccc4[nH]3)c2)cc1 [MMV665879] | 17.15
4 | COc1ccc(CNC(=O)c2cc3c(=O)n4ccccc4nc3n(CCc3ccccc3)c2=N)cc1 [MMV665881] | 6.76
5 | OC(CNC1CCCCC1)Cn1c2ccc(I)cc2c2cc(I)ccc21 (stereo not drawn) [MMV665882] | 54.36
6 | O=C(Nc1cccc(-c2nc3ccccc3[nH]2)c1)c1cccc(NC(=O)c2ccco2)c1 [MMV665883] | 21.02
7 | CC(Oc1ccc(NC(=O)c2cccs2)cc1)C(=O)c1ccc(Cl)cc1 (stereo not drawn) [MMV665886] | 2.30
8 | O=C(Nc1ccccc1O)c1ccc(Oc2cccc(C(=O)Nc3ccccc3O)c2)cc1 [MMV665888] | -15.91
9 | COc1ccc(-c2nonc2NC(=O)c2cccc(C)c2)cc1OC [MMV665890] | -8.07
10 | c1ccc(-c2ccc(-c3nc4ccccc4[nH]3)cc2)cc1 [MMV665891] | -89.45
11 | CC(=O)c1sc(NC(=O)Nc2ccc(C)cc2C)nc1C [MMV665894] | -2.69
12 | COc1ccc2nc(N)nc(C)c2c1 [MMV665897] | -26.21
13 | COc1cc(C(=O)Nc2ccc(-c3nc4ccccc4[nH]3)cc2)cc(OC)c1OC [MMV665898] | -11.03
14 | O=C(c1ccccc1F)N(Cc1ccc(Cl)cc1)c1ccccn1 [MMV665899] | -103.42
15 | O=C(Nc1ccc(CN2CCOCC2)cc1)c1ccc(-c2ccc(Br)cc2)o1 [MMV665901] | -20.18
16 | Cl.N=c1n(CCN2CCCCC2)c2ccccc2n1CC(O)c1cccc(Br)c1 (stereo not drawn) [MMV665902] | -8.42
17 | COCCn1c(C)nc2ccccc2c1=O [MMV665904] | -26.17
18 | Cc1ccc(-c2cc(C(=O)Nc3ccc(S(=O)(=O)N4CCCCC4)cc3)[nH]n2)c(O)c1 [MMV665906] | -8.23
19 | COc1ccc(N2CCN(C(CNC(=O)CC(C)(C)C)c3ccc4c(c3)OCO4)CC2)cc1 (stereo not drawn) [MMV665908] | -6.01
20 | O=C(Nc1nc(-c2ccccn2)cs1)c1ccccc1Br [MMV665909] | -125.86
21 | CCOc1ccc(-c2nc(NC(=O)c3cccc(S(C)(=O)=O)c3)sc2C)cc1 [MMV665913] | -25.30

Row | SMILES | PGI (% of DB1127 at 10 uM) [%]
22 | COc1ccccc1N1CCN(C(CNS(=O)(=O)c2ccc(Cl)cc2)c2cccnc2)CC1 (stereo not drawn) [MMV665914] | 1.92
23 | COc1ccc(-c2nc(NC(=O)CS(=O)(=O)c3ccc(F)cc3)sc2C)cc1 [MMV665915] | -67.15
24 | COc1ccccc1CNC(=O)CCn1c(=O)[nH]c2ccccc2c1=O [MMV665916] | -47.23
25 | O=C(Nc1ccc(Cl)cc1)N1CCN(c2ccc3nncn3n2)CC1 [MMV665917] | -87.17
26 | O=C(CSc1ccc2nnc(-c3cccc(F)c3)n2n1)Nc1ccc2c(c1)OCO2 [MMV665918] | -24.34
27 | N=c1c2ccccc2nnn1-c1cccc(C(F)(F)F)c1 [MMV665923] | 18.29
28 | COc1ccc(C(=O)C2CC2c2ccc(Cl)cc2)cc1 (stereo not drawn) [MMV665924] | -13.71
29 | O=C(CCl)NCCOc1ccc(Cl)cc1Cl [MMV665927] | 24.95
30 | CCC(C)NCC(O)(c1ccc(Cl)cc1)c1ccc(Cl)cc1 (stereo not drawn) [MMV665928] | -109.93
31 | CCCCNCC(O)(c1ccc(Cl)cc1)c1ccc(Cl)cc1 [MMV665929] | -0.59
32 | O=C1c2ccccc2-c2nnc(-c3ccc(Br)cc3)cc21 [MMV665934] | -7.23
33 | FC(F)(F)c1ccc(Nc2nnnc3ccccc23)cc1 [MMV665935] | -27.43
34 | Cc1ccc(S(=O)(=O)c2c(COC(=O)c3cccc(C)c3)c(-c3ccccc3)nn2C)cc1 [MMV665936] | -18.54
35 | O=C(Nc1ccsc1C(=O)NC1CCCCC1)c1ccc(F)cc1 [MMV665939] | -15.17
36 | CCOc1ccc(/C=C/c2nc(=O)c3ccccc3o2)cc1 [MMV665940] | -92.49
37 | Nc1ccc(-c2nc3cc(Cc4ccc5[nH]c(-c6ccc(N)cc6)nc5c4)ccc3[nH]2)cc1 [MMV665943] | 9.49
38 | COc1ccc(CN2CCN(Cc3ccccc3)CC2)c(O)c1 [MMV665944] | -7.26
39 | CC(C)=CCN1CCC(C(=O)Nc2ccc(-c3nc4ccccc4[nH]3)cc2)CC1 [MMV665946] | -26.45
40 | O=C(Nc1ccccc1O)c1ccc(-c2ccc(Cl)cc2Cl)o1 [MMV665948] | -40.46
41 | Oc1ccc(C(=C(Cl)Cl)c2ccc(O)cc2)cc1 [MMV665949] | 8.99
42 | O=C(Nc1ccc(F)c(Cl)c1)Nc1ccc(Cl)c(Cl)c1 [MMV665953] | 213.83

Row | SMILES | PGI (% of DB1127 at 10 uM) [%]
43 | O=C(NCC1Cc2cccc(-c3ccncc3)c2O1)c1csc2c1CCCC2 (stereo not drawn) [MMV665954] | -10.62
44 | CCN(CC)CCCNc1nc(-c2ccc(Cl)cc2)nc2ccccc12 [MMV665961] | -34.32
45 | COc1cccc(C(=O)NC(c2ccc(C)cc2)c2cc(Cl)c3cccnc3c2O)c1 (stereo not drawn) [MMV665969] | -25.94
46 | CCOC(=O)C1=C(C)N=c2sc(=Cc3cc(Cl)ccc3O)c(=O)n2C1c1ccc(OC)cc1 (stereo not drawn) [MMV665971] | -11.30
47 | O=C(Cc1ccccc1)NC(c1ccc(Cl)cc1)c1c(O)ccc2ccccc12 (stereo not drawn) [MMV665972] | 15.67
48 | CCOC(=O)c1cn(CC)c2cc(N(C)CCc3ccc(OC)c(OC)c3)c(F)cc2c1=O [MMV665977] | -67.06
49 | FC(F)(F)c1cccc(CNC2CCN(CCc3ccccc3)CC2)c1 [MMV665979] | -152.47
50 | OC1CCCCC1C1(NC(=S)Nc2ccccc2)CCCCC1 (stereo not drawn) [MMV665980] | -9.51
51 | CCCCCCc1cc(O)c2c3c(c(=O)oc2c1)CCC(C)C3 (stereo not drawn) [MMV665987] | 4.36
52 | Cc1nc2ccccc2c(O)c1CC=C(Cl)Cl [MMV665994] | 45.96
53 | CN1c2ccccc2N(C)C1c1ccc2c(c1)OCO2 [MMV666009] | -36.57
54 | Cc1ccc(OCCCCCCNCCO)c(C)c1 [MMV666020] | 2.96
55 | Cc1ccc(-c2cc3c(nn2)-c2ccccc2C3=O)cc1 [MMV666021] | -22.93
56 | COc1ccc(C(=O)NC(c2ccccc2Cl)c2cc(Cl)c3cccnc3c2O)cc1 (stereo not drawn) [MMV666022] | 259.47
57 | c1ccc(Cn2c(N=Nc3c(Nc4ccccc4)ccc4ccccc34)nc3ccccc32)cc1 [MMV666023] | -50.58
58 | OC(Cn1nnc2ccccc21)Cn1c2ccc(Br)cc2c2cc(Br)ccc21 (stereo not drawn) [MMV666025] | 1.46
59 | COc1ccc(-c2cc3c(nn2)-c2ccccc2C3=O)cc1 [MMV666026] | -10.04
60 | COc1ccc(C(=O)NC(c2ccc(Cl)cc2Cl)c2cc(Cl)c3cccnc3c2O)cc1 (stereo not drawn) [MMV666054] | 1.08
61 | O=C(Nc1ccc(Cl)cc1C(=O)Nc1ccncc1)c1ccc(Cl)cc1Cl [MMV666057] | -78.23
62 | COc1ccc(CN2CCCC(C(=O)c3ccc(C(F)(F)F)cc3)C2)c(O)c1 (stereo not drawn) [MMV666060] | -1.92
63 | COc1cccc(O)c1CN1CCC2(CCCN(Cc3ccc(F)cc3)C2)C1 (stereo not drawn) [MMV666061] | -20.69

Row | SMILES | PGI (% of DB1127 at 10 uM) [%]
64 | Cc1ccc(N2C(=O)C3C(C2=O)C2(c4ccccc4)C(=O)C3(c3ccccc3)C(c3ccccc3)=C2c2ccccc2)cc1 (stereo not drawn) [MMV666062] | -37.70
65 | COc1ccc(CNC2CCN(c3ccc(NC(=O)c4cccc(Cl)c4)cc3)CC2)cc1OC [MMV666067] | -35.43
66 | COc1ccc(CCN2CCC(CN(C)Cc3cnn(-c4ccccc4)c3)CC2)cc1 [MMV666069] | -33.62
67 | O=C(NC1CCCC1)c1ccc(N2CCC(NCc3cccc(C(F)(F)F)c3)CC2)cc1 [MMV666070] | -8.11
68 | Cc1ccc(CN2CCC(C(=O)Nc3ccc(-c4cc5ccccc5[nH]4)cc3)CC2)o1 [MMV666071] | -52.95
69 | COCCNC(=O)c1ccc(OC2CCN(Cc3ccc(F)c(F)c3)CC2)c(Cl)c1 [MMV666072] | -116.21
70 | COc1ccc(C2N(C)c3ccccc3N2C)cc1 [MMV666075] | 0.50
71 | Cc1ccc2cc3c(N)c4c(C)ccc(C)c4nc3nc2c1 [MMV666079] | -43.85
72 | O=C(NC(c1ccccc1)c1ccc2cccnc2c1O)c1ccccc1 (stereo not drawn) [MMV666080] | -67.16
73 | CCCc1c(C)nc2ccccc2c1O [MMV666081] | -67.20
74 | CCCC(c1nnnn1C1CCCCC1)N1CCN(C(=O)c2ccco2)CC1.Cl (stereo not drawn) [MMV666093] | -0.54
75 | CCCc1c(C)nc2ccc(Br)cc2c1O [MMV666095] | -30.45
76 | COc1ccc(C2=C(c3ccc(OC)cc3)C3(c4ccccc4)C(=O)C2(c2ccccc2)C2C(=O)N(c4ccc(C)cc4)C(=O)C23)cc1 (stereo not drawn) [MMV666101] | -51.33
77 | CN(C)c1ccc(-c2nc3ccc(N)cc3[nH]2)cc1 [MMV666102] | -14.14
78 | CCn1c(SCC(=O)Nc2cc(C(F)(F)F)ccc2Cl)nc2ccccc2c1=O [MMV666103] | -111.41
79 | COCCN(C(=O)Cc1cccs1)C(C(=O)NCc1ccc(OC)cc1)c1ccc(C(C)C)cc1 (stereo not drawn) [MMV666105] | -124.48
80 | O=C(NC1CCCCC1)C(c1cccs1)N(CCc1ccccc1)C(=O)c1ccco1 (stereo not drawn) [MMV666106] | 2.06
81 | O=C(CCc1ccco1)NC1CCN(CC2(c3ccc(Cl)cc3)CCC2)CC1 [MMV666108] | -18.89
